Data taken from paper PMC8397948, “Effect of Selected Antidepressants on Placental Homeostasis of Serotonin: Maternal and Fetal Perspectives” (Pharmaceutics, 2021).
Counter-ions that a name gives are not always drawn.

How the values were obtained:
OCT3 [1] = biological target: T1, OCT3 (Rattus norvegicus, UniProt O88446); assay: In situ open-circuit perfusion of rat term placenta: 5-HT extraction from fetal circulation; assay type: in vivo
T1 sequence (O88446 1-551): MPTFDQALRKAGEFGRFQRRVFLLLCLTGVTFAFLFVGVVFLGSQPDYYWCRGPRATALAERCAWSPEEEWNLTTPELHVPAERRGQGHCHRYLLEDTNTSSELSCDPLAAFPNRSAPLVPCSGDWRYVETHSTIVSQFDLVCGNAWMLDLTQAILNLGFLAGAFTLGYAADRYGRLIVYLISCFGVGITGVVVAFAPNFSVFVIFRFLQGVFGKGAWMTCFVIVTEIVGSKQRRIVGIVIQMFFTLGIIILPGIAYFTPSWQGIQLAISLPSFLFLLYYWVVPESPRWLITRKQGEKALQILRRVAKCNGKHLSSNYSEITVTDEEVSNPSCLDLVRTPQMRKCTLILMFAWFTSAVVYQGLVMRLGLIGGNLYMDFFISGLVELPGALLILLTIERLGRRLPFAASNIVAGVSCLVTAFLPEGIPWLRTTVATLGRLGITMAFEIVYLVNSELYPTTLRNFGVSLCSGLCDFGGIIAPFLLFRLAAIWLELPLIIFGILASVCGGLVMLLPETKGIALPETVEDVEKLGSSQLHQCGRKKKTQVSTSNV

[2] = pregnant women or women; read-out: Cmax (maximum steady-state plasma concentration); cited from earlier work
OCT3 [3] = biological target: T2, OCT3 (Homo sapiens, UniProt O75751); assay: [3H]5-HT uptake by basal membrane (BM) vesicles from human term placenta; assay type: biochemical; conditions: 100 nM [3H]5-HT, 10 min preincubation, room temperature, n ≥ 4, read-out: IC50 BM (OCT3-mediated 5-HT uptake)
T2 construct: MVM and BM vesicles were used to evaluate the effects of antidepressants on SERT- and OCT3-mediated uptake of 5-HT, respectively; from tissue; host or cells: human term placenta, basal membrane (BM) vesicles
T2 sequence (O75751 1-556): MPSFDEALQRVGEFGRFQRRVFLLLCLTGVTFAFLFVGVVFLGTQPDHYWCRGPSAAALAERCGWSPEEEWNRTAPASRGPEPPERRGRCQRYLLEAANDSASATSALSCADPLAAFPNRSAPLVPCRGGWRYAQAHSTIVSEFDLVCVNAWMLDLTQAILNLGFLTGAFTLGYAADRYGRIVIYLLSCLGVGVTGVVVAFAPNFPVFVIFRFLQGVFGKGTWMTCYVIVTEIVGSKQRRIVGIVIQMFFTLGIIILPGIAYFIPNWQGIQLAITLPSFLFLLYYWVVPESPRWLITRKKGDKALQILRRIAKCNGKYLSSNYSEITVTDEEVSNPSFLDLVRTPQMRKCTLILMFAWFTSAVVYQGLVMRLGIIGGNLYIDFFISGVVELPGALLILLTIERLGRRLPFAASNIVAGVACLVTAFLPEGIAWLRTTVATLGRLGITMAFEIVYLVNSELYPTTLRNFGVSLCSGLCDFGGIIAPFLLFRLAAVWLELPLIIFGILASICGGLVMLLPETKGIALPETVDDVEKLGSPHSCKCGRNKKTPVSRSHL

[4] = Published plasma concentrations and fetal-to-maternal ratios in (pregnant) women; assay type: in vivo, human; conditions: matches Ca x F/M ratio of published values
[5] = 1 µM (therapeutic concentration), fetal sex not considered
[6] = 100 µM antidepressant, 1 nM [3H]5-HT, both fetal sexes together, vs control
[7] = 100 µM antidepressant, male placentas

Effect on placental extraction of 5-HT from fetal circulation (OCT3 [1]; [5])	Effect on placental extraction of 5-HT from fetal circulation (OCT3 [1]; [6])	SMILES	Cmax [2] [nM]	Effect on 5-HT extraction from circulation of male fetuses (OCT3 [1]; [7])	further results
no significant inhibition	significantly decreased	CN(C)CCCC1(c2ccc(F)cc2)OCc2cc(C#N)ccc21 (centres unmarked) [Citalopram, citalopram hydrobromide]	1200	–	–
–	–	CNCCC(Oc1ccc(C(F)(F)F)cc1)c1ccccc1 (centres unmarked) [Fluoxetine, fluoxetine hydrochloride]	–	susceptible to inhibition	–
no significant inhibition	significantly decreased	COCCCC/C(=N\OCCN)c1ccc(C(F)(F)F)cc1 [Fluvoxamine, fluvoxamine maleate]	1300	susceptible to inhibition	IC50 (OCT3 [3]): 15.2 nM; Ca;fetal (average fetal plasma concentration) [4]: 348 nM
–	–	CN[C@H]1CC[C@@H](c2ccc(Cl)c(Cl)c2)c2ccccc21 [Sertraline, sertraline hydrochloride]	–	susceptible to inhibition	–
–	–	COc1ccc(C(CN(C)C)C2(O)CCCCC2)cc1 (centres unmarked) [Venlafaxine, venlafaxine hydrochloride]	–	susceptible to inhibition	–
–	–	CCN1/C(=C/c2ccc3ccccc3[n+]2CC)C=Cc2ccccc21.[I-] [decynium-22]	–	–	Effect of model OCT3 inhibitor on 5-HT extraction from fetal circulation (OCT3 [1]; 10 µM decynium-22): sensitive to co-administration of decynium-22

SMILES	Effect on placental extraction of 5-HT from fetal circulation (OCT3 [1]; [5])	Effect on placental extraction of 5-HT from fetal circulation (OCT3 [1]; [6])	Cmax [2] [nM]	Effect on 5-HT extraction from circulation of male fetuses (OCT3 [1]; [7])	further results
Fc1ccc([C@@H]2CCNC[C@H]2COc2ccc3c(c2)OCO3)cc1 [Paroxetine, paroxetine hydrochloride]	no significant inhibition	significantly decreased	1000	susceptible to inhibition	IC50 (OCT3 [3]): 4.39 nM; Effect on 5-HT extraction from fetal circulation in male placentas (OCT3 [1]; 1 µM (therapeutic concentration), male placentas): potent inhibitor in males; Effect on 5-HT extraction from circulation of female fetuses (OCT3 [1]; 100 µM antidepressant, female placentas): prone to inhibition
